The test concerns the target Coagulation factor XI (Homo sapiens, UniProt P03951). Kind of test: In Vitro Assays: Factor XIa determinations were made in 50 mM HEPES buffer at pH 7.4 containing 145 mM NaCl, 5 mM KCl, and 0.1% PEG 8000 (polyethylene glycol; JT Baker or Fisher Scientific). Determinations were made using purified human Factor XIa at a final concentration of 25-200 pM (Haematologic Technologies) and the synthetic substrate S-2366 (pyroGlu-Pro-Arg-pNA; CHROMOGENIX® or AnaSpec) at a concentration of 0.0002-0.001 M.

Consider one compound from ChEMBL document CHEMBL5728798, “Macrocycles as factor XIA inhibitors” (2021).

Coagulation factor XI, sequence (P03951 19-387 limits assumed): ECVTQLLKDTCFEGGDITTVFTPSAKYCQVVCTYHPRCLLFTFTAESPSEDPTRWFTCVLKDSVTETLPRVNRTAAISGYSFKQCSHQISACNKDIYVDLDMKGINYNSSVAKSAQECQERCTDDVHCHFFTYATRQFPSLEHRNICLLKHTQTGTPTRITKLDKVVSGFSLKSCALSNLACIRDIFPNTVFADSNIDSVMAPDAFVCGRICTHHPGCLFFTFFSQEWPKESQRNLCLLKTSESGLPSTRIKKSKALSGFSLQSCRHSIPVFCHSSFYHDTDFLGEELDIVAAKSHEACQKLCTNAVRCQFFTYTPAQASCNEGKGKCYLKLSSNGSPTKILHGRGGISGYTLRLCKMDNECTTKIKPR
Coagulation factor XI, sequence (P03951 388-625 limits assumed): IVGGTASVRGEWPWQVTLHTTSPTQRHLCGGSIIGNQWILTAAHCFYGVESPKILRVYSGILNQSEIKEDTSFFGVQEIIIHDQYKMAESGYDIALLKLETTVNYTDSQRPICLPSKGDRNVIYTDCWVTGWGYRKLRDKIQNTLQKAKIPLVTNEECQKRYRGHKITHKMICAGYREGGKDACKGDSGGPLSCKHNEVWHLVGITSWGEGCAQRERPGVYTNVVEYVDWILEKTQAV

The compound `COC(=O)Nc1ccc2c(c1)N[C@@H](C(F)F)CCCC[C@H](NC(=O)/C=C/c1cc(Cl)ccc1-n1cnnn1)c1nc-2c[nH]1` displayed a Ki of 289 nM.
